Source: ChEMBL document CHEMBL1201862, “PubChem BioAssay data set” (2004)
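The compound was tested at five concentrations on cells cultured in 96-well plates, with a 48-hour exposure period. Here, GI50 denotes the concentration required for 50% inhibition of growth.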 Calls of active or inactive are those of the source. Rule as the data show it: active = GI50 up to about 1.1 µM and inactive = higher.

Columns and labels:
Assay in all cases: NCI tumour cell line growth inhibition, 48 h
786-0 = test system: 786-0
A498 = test system: A498
A549 = test system: A549
ACHN = test system: ACHN
BT-549 = test system: BT-549
CAKI-1 = test system: CAKI-1
CCRF-CEM = test system: CCRF-CEM
COLO 205 = test system: COLO 205
DU-145 = test system: DU-145
EKVX = test system: EKVX
HCC 2998 = test system: HCC 2998
HCT-116 = test system: HCT-116
HCT-15 = test system: HCT-15
HL-60 = test system: HL-60
HOP-62 = test system: HOP-62
HOP-92 = test system: HOP-92
HT-29 = test system: HT-29
Hs-578T = test system: Hs-578T
IGROV-1 = test system: IGROV-1
K562 = test system: K562
KM12 = test system: KM12
LOX IMVI = test system: LOX IMVI
M14 = test system: M14
MCF7 = test system: MCF7
MDA-MB-231 = test system: MDA-MB-231
MDA-MB-435 = test system: MDA-MB-435
MDA-N = test system: MDA-N
MOLT-4 = test system: MOLT-4
Malme-3M = test system: Malme-3M
NCI-H226 = test system: NCI-H226
NCI-H23 = test system: NCI-H23
NCI-H460 = test system: NCI-H460
NCI-H522 = test system: NCI-H522
NCI/ADR-RES = test system: NCI/ADR-RES
OVCAR-3 = test system: OVCAR-3
OVCAR-4 = test system: OVCAR-4
OVCAR-5 = test system: OVCAR-5
OVCAR-8 = test system: OVCAR-8
PC-3 = test system: PC-3
RPMI-8226 = test system: RPMI-8226
RXF 393 = test system: RXF 393
SF-268 = test system: SF-268
SF-295 = test system: SF-295
SF-539 = test system: SF-539
SK-MEL-28 = test system: SK-MEL-28
SK-MEL-2 = test system: SK-MEL-2
SK-MEL-5 = test system: SK-MEL-5
SK-OV-3 = test system: SK-OV-3
SN12C = test system: SN12C
SNB-19 = test system: SNB-19
SNB-75 = test system: SNB-75
SW-620 = test system: SW-620
T47D = test system: T47D
TK-10 = test system: TK-10
U-251 = test system: U-251
UACC-257 = test system: UACC-257
UACC-62 = test system: UACC-62
UO-31 = test system: UO-31

Structure (SMILES): CN1C(=O)C(O)CC1c1ccc(C(F)(F)F)cc1 (stereo not drawn)
- GI50 (786-0): > 100 µM (inactive)
- GI50 (A498): > 100 µM (inactive)
- GI50 (A549): > 100 µM (inactive)
- GI50 (ACHN): > 100 µM (inactive)
- GI50 (BT-549): > 100 µM (inactive)
- GI50 (CAKI-1): > 100 µM (inactive)
- GI50 (CCRF-CEM): > 100 µM (inactive)
- GI50 (COLO 205): > 100 µM (inactive)
- GI50 (DU-145): > 100 µM (inactive)
- GI50 (EKVX): > 100 µM (inactive)
- GI50 (HCC 2998): > 100 µM (inactive)
- GI50 (HCT-116): > 100 µM (inactive)
- GI50 (HCT-15): > 100 µM
- GI50 (HL-60): > 100 µM (inactive)
- GI50 (HOP-62): > 100 µM (inactive)
- GI50 (HOP-92): > 100 µM (inactive)
- GI50 (HT-29): > 100 µM (inactive)
- GI50 (Hs-578T): > 100 µM (inactive)
- GI50 (IGROV-1): > 100 µM (inactive)
- GI50 (K562): > 100 µM (inactive)
- GI50 (KM12): > 100 µM (inactive)
- GI50 (LOX IMVI): > 100 µM (inactive)
- GI50 (M14): > 100 µM (inactive)
- GI50 (MCF7): > 100 µM (inactive)
- GI50 (MDA-MB-231): > 100 µM (inactive)
- GI50 (MDA-MB-435): > 100 µM (inactive)
- GI50 (MDA-N): > 100 µM (inactive)
- GI50 (MOLT-4): > 100 µM (inactive)
- GI50 (Malme-3M): > 100 µM (inactive)
- GI50 (NCI-H226): > 100 µM (inactive)
- GI50 (NCI-H23): > 100 µM (inactive)
- GI50 (NCI-H460): > 100 µM (inactive)
- GI50 (NCI-H522): > 100 µM (inactive)
- GI50 (NCI/ADR-RES): > 100 µM (inactive)
- GI50 (OVCAR-3): > 100 µM (inactive)
- GI50 (OVCAR-4): > 100 µM (inactive)
- GI50 (OVCAR-5): > 100 µM (inactive)
- GI50 (OVCAR-8): > 100 µM (inactive)
- GI50 (PC-3): > 100 µM (inactive)
- GI50 (RPMI-8226): > 100 µM (inactive)
- GI50 (RXF 393): > 100 µM (inactive)
- GI50 (SF-268): > 100 µM (inactive)
- GI50 (SF-295): > 100 µM (inactive)
- GI50 (SF-539): > 100 µM (inactive)
- GI50 (SK-MEL-28): > 100 µM (inactive)
- GI50 (SK-MEL-2): > 100 µM (inactive)
- GI50 (SK-MEL-5): > 100 µM (inactive)
- GI50 (SK-OV-3): > 100 µM (inactive)
- GI50 (SN12C): > 100 µM (inactive)
- GI50 (SNB-19): > 100 µM (inactive)
- GI50 (SNB-75): > 100 µM (inactive)
- GI50 (SW-620): > 100 µM (inactive)
- GI50 (T47D): > 100 µM (inactive)
- GI50 (TK-10): > 100 µM (inactive)
- GI50 (U-251): > 100 µM (inactive)
- GI50 (UACC-257): 44.1 µM (inactive)
- GI50 (UACC-62): > 100 µM (inactive)
- GI50 (UO-31): > 100 µM (inactive)
